Patent publication US20220218719A1, “MATRIX COMPOSITION COMPRISING (S)-5-BENZYL-N-(5-METHYL-4-OXO-2,3,4,5-TETRAHYDROBENZO[B][1,4]OXAZEPIN-3-YL)-4H-1,2,4-TRIAZOLE-3-CARBOXAMIDE” (GLAXOSMITHKLINE INTELLECTUAL PROPERTY DEVELOPMENT LIMITED, priority 2019, published 2022)
Where two headings read alike, the source gives them in different places.

Assays:
[1] = Early clinical studies: PK profile of Compound 1 given as immediate release (IR) formulation; type: in vivo; conditions: human, plasma, oral
Method: The formulations used in early clinical studies included a 0.1 mg/mL oral solution to support doses up to 5 mg; active-pharmaceutical-ingredient (API) in HPMC capsules for doses between 5 mg to 120 mg; and roller-compacted IR tablets of 10, 20 and 30 mg strength.
The pharmacokinetic (PK) profile of Compound 1 when administered as an immediate release (IR) formulation was characterized by rapid absorption and elimination with time to maximum concentration (Tmax) of approximately 2 hours post-dose. […] A majority of the systemic exposure to GSK2982772 was associated with the shorter half-life of 2-3 hours.

[2] = plasma/blood, 120 mg dose of IR formulation; cited from earlier work

half-life ([1]; phase until approximately 12 hours post-dose, read-out: elimination half-life (t1/2)): 2 to 3 h
Tmax ([1]; post-dose, read-out: time to maximum concentration (Tmax)): ~2 h
half-life ([1]; read-out: slower terminal phase t1/2): 5 to 6 h
Compound: CN1C(=O)[C@@H](NC(=O)c2nnc(Cc3ccccc3)[nH]2)COc2ccccc21 [Compound 1, (S)-5-benzyl-N-(5-methyl-4-oxo-2,3,4,5-tetrahydrobenzo[b][1,4]oxazepin-3-yl)-4H-1,2,4-triazole-3-carboxamide]
t1/2 [2]: 2 to 3 h
